{"source": "patent US7371529B2", "about": "“Methods and compositions for modulating gluconeogenesis using PGC-1” (Dana-Farber Cancer Institute, Inc., priority 2001, dated 2008)", "key": {"PGC-1": {"system": "PGC-1", "test": "STZ-diabetic mouse, liver PGC-1 (Northern)", "format": "in vivo", "conditions": "STZ-diabetic mice, after 10 days", "experimental": "For the feeding experiments, male mice were either allowed free access to food or subjected to a 24 hour fast and sacrificed at the end of 24 hours. A third group was fasted for 24 hours and then fed ad libitum for another 24 hours prior to sacrifice. For the STZ-diabetic mouse experiments, 6-8 week old male mice (n=3 per group) were injected intraperitoneally for three consecutive days with either sodium citrate solution or streptozotocin ([…] of body weight per injection). Animals were sacrificed after 10 days, at which point the mean blood glucose in the STZ-treated group rose to over 400 mg/dl. For the LIRKO mouse experiments, two-month-old female control (lox/lox) or LIRKO mice were divided into three groups (n=2 each) and subjected to the standard feeding protocol as described above.\nTotal RNA was prepared from cells or tissues with Trizol (Life Technologies) according to the manufacturer's instructions. Ten to twenty micrograms of total RNA was fractionated in a 1% agarose-formaldehyde gel, transferred onto nylon, and hybridized with cDNA probes labeled by random-primed labeling (Boehringer Mannheim) with [-^32P]-dCTP, using methods known in the art. […]"}, "FKHR [1]": {"system": "FKHR", "test": "G6 Pase promoter-reporter, FKHR coactivation", "format": "cell-based", "conditions": "PGC-1 cotransfected with FKHR"}, "[2]": {"system": "gluconeogenic, ketogenic, and beta-oxidation genes", "test": "Gene induction in control (floxed) or HNF-4α null primary hepatocytes", "format": "cell-based", "conditions": "presence and absence of HNF-4α", "from_the_text": "The ability of PGC-1 to induce mRNA expression of gluconeogenic, ketogenic, and beta-oxidation genes was examined in cells lacking HNF-4α. Control (floxed) or HNF-4α null cells (primary hepatocytes) were infected with adenoviruses containing GFP (control) or PGC-1 and were either untreated, serum-starved, or treated with dexamethasone and cAMP."}, "[3]": {"system": "PGC-1 protein, glucose-6-phosphatase and PEPCK mRNA", "test": "Adenovirus infusion in Wistar rats, liver immunoblot and Northern", "format": "in vivo", "conditions": "rat liver, adenoviral PGC-1", "experimental": "Male Wistar rats (Charles River) were fed with standard laboratory food and weighed 300-350 g at the time of the studies. Animals were anesthetized by injection of 0.1 ml per 100 g body mass of a solution containing 25 mg/ml of xylazine (Phoenix Scientific) and 0.5 mg/ml of acepromazine (Fermenta Animal Health). CMV-GFP and CMV-PGC-1 adenoviruses were purified by CsCl gradient centrifugation as described in Becker, T. et al. (1994) Methods Cell Biol. 43:161-189. Pure recombinant virus (1×10^12 plaque forming units), suspended in 0.5 ml of phosphate buffered saline (PBS), was injected into anesthetized rats through the tail vein. Animals were allowed to recover and were fed standard food ad libitum. Five days after adenovirus infusion, tail vein blood was collected at 14:00 for measurement of glucose concentration, using a β-glucose analyzer (HemoCue AB). After the measurement, animals were sacrificed. Blood samples were collected from the heart, centrifuged at 1300 g for 15 minutes at 4° C. in 15 ml centrifuge tubes containing 50 μl of 0.4 M EDTA, and stored at −20° C. before measurement of insulin concentrations with a rat insulin specific radioimmunoassay kit (Linco Research). Liver samples were collected, snap frozen in liquid nitrogen, and stored at −80° C. Aliquots of frozen liver samples were processed for northern blot or immunoblot analysis. […]"}, "PEPCK promoter": {"system": "PEPCK promoter", "test": "PEPCK promoter-luciferase reporter assay in Fao hepatoma cells", "format": "cell-based, rat", "experimental": "(§1) NIH 3T3 or Fao hepatoma cells were cultured in 10% FBS-RPMI and transfected at 70-90% confluency using Fugene 6 (Roche). The ratio of DNA:Fugene was 1:2. Culture medium was changed after 24 hours. Cells were collected 48 hours after transfection and β-galactosidase and luciferase assays were performed. Transfections were performed in duplicate and repeated at least twice.\nThe ability of PGC-1 to activate the PEPCK-promoter (using a luciferase reporter gene) in hepatoma cells was examined. Fao rat hepatoma cells were maintained in 10% FBS-RPMI and transfected in a 6 well format with 200 ng of pPL32-PEPCK-luciferase (or pGL3-PEPCK-luciferase), 100 ng CMV β-galactosidase, and […] of pCMV or pCMV-PGC-1 per well. Cells were harvested for luciferase assays 48 hours after transfection, and the readings were normalized by β-galactosidase activity. […] In the transient transfection assays described above, PGC-1 activated the wild-type PEPCK promoter-reporter gene by approximately 10-fold (FIG. 4).\nTo identify the regulatory elements mediating the effect of PGC-1 on this promoter, mutant constructs were utilized in which various regulatory elements within the PEPCK-luciferase reporter construct were substituted by a yeast Gal4 DNA binding element (FIG. 1; Wang, J. C. et al. (1999) Mol. Endocrinol. 13:604-618). […] However, mutation of the AF1 or AF3 site (or both) each reduced the PGC-1-mediated activation by 50-60%; a combination of the AF1-to-Gal4 substitution and additional block mutations in the GR binding sites (GR1, GR2) led to a small but significant further decrease. […] A replacement of the P3 (I) site, an element shared by the cAMP and thyroid hormone response units, by the Gal4 DNA binding element caused a modest (25%) reduction in the PGC-1 mediated activation of the PEPCK reporter. […] It also appears that there are other unidentified regulatory elements on the PEPCK promoter through which PGC-1 can produce a partial activation.\nThe AF1 and AF3 sites are both DR-1 type sequences that can bind several nuclear receptors. […] The AF3 element has also been associated with COUP-TF binding (Scott et al (1996) supra). […] Vectors encoding the Gal4 DBD, Gal4 DBD-HNF-4α, or Gal4 DBD-COUP-TF fusion proteins (500 ng per well) were cotransfected with the mutant receptors, containing a substitution of a particular element within the Gal4 DBD, to determine whether they can rescue the PGC-1 activity. […] In contrast, cotransfection of a Gal4-COUP-TF construct produced only a partial restoration (approximately 20-30% of that achieved by HNF-4α), and cotransfection of the Gal4 DBD alone had virtually no effect on the PGC-1 mediated activation. Very similar results were obtained at the AF3 site.\nThe role of the glucocorticoid response elements in the PEPCK promoter was also examined. […] Fao hepatoma cells were transfected as described above for FIG. 4. Dexamethasone (dex, 1 μM final concentration) was added for the final 24 hours."}, "COUP-TF": {"system": "COUP-TF", "test": "Multimerized AF1 reporter assay in NIH 3T3 fibroblasts, COUP-TF", "format": "cell-based", "experimental": "as §1\n(§2) To examine these functional interactions at the AF1 site with intact transcription factors, reporter gene assays were performed using PGC-1, wild-type HNF-4α and COUP-TF proteins, and a multimerized AF1 response element. To avoid interference with endogenous liver factors, these experiments were done in NIH 3T3 fibroblasts. Transfections were done as described above for FIG. 4. Neither HNF-4α, COUP-TF, nor PGC-1 activates these target sequences alone (FIG. 6)."}, "G6 Pase promoter": {"system": "G6 Pase promoter", "test": "G6 Pase promoter-luciferase reporter in SV40 transformed hepatocytes", "format": "cell-based", "experimental": "PGC-1 and/or HNF-4α were cotransfected into SV40 transformed hepatocytes, and the ability to coactivate the glucose-6-phosphatase (G6 Pase) promoter was determined using a luciferase reporter gene. Experiments were performed in duplicate."}, "HNF-4α": {"biological_target": "T1, HNF-4α (Homo sapiens, UniProt P41235)", "T1 construct": "made in house; host or cells: TNT reticulocyte lysate in vitro transcription/translation (Promega)", "T1 sequence (P41235 1-474)": "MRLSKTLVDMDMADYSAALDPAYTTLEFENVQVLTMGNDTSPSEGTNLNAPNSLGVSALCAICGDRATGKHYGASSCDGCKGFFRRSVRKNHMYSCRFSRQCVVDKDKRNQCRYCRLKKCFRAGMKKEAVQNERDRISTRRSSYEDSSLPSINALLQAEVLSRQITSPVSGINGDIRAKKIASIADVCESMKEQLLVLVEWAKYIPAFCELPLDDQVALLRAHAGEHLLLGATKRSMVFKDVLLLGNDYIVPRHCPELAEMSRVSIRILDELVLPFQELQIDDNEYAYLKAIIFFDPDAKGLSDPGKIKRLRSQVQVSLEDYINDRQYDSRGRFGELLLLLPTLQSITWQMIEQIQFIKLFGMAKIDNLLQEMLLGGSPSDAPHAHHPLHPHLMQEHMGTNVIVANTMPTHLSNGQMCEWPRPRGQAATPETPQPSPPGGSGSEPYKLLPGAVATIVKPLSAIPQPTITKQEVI", "test": "Multimerized AF1 reporter assay in NIH 3T3 fibroblasts, HNF-4α", "format": "cell-based", "conditions": "NIH 3T3, no hormone or ligand added", "experimental": "as §1, §2"}, "FKHR [4]": {"system": "FKHR", "test": "3×IRS promoter-luciferase reporter, FKHR coactivation", "format": "cell-based", "conditions": "PGC-1 cotransfected with wild-type or mutant FKHR"}, "[5]": {"system": "G6 Pase, PEPCK and PGC-1 mRNA", "test": "Insulin effect on mRNA levels and PGC-1 function in cultured liver cells", "format": "cell-based", "conditions": "for PGC-1 induced expression of PEPCK and glucose-6-phosphatase: cultured liver cells", "from_the_text": "This example describes experiments designed to determine whether insulin acts directly to suppress PGC-1 expression or function. The levels of PGC-1 mRNA were first examined in cells treated with various combinations of insulin, forskolin, and dexamethasone.\nHowever, PGC-1 function is negatively regulated by insulin in cultured liver cells. […] FKHR is regulated directly by Akt via phosphorylation. Stimulation by insulin results in activation of Akt, which phosphorylates FKHR, which in turn inactivates FKHR by causing it to exit the nucleus. Insulin treatment downregulates the ability of PGC-1 to induce the gluconeogenic genes PEPCK and glucose-6-phosphatase. PGC-1 induced expression of the genes was […] when a constitutively active FKHR was used, while a dominant-negative FKHR also downregulates the ability of PGC-1 to induce these genes, even in the absence of insulin."}}, "data": [{"molecule": "CN(N=O)C(=O)N[C@H]1C(O)O[C@H](CO)[C@@H](O)[C@@H]1O", "note": "(mixture of isomers) [streptozotocin]", "values": [{"measurement": "PGC-1 in liver (Northern)", "setting": "PGC-1", "result": "consistently increased"}]}, {"molecule": "PGC-1: coactivator of nuclear receptors, expressed from transfected pCMV-PGC-1 or from adenovirus", "values": [{"measurement": "coactivation on wild type G6 Pase promoter-reporter", "setting": "FKHR [1]", "result": "coactivated FKHR"}, {"measurement": "induction of gluconeogenic genes glucose-6-phosphatase and PEPCK", "setting": "[2]", "result": "in the presence, but not the absence, of HNF-4α"}, {"measurement": "liver PEPCK mRNA (Northern)", "setting": "[3]", "result": "increased expression"}, {"measurement": "liver mRNA for glucose-6-phosphatase (Northern)", "setting": "[3]", "result": "dramatic and uniform elevation"}, {"measurement": "activation of wild-type PEPCK promoter-reporter gene", "setting": "PEPCK promoter; Fao cells, 1 mg pCMV-PGC-1 per well, 48 hours", "result": "approximately 10 fold"}, {"measurement": "reduction in PGC-1 mediated activation of the PEPCK reporter", "setting": "PEPCK promoter; P3 (I) site replaced by Gal4 DNA binding element", "result": 25, "unit": "%"}, {"measurement": "coactivation of PEPCK promoter through the glucocorticoid receptor", "setting": "PEPCK promoter; dexamethasone 1 μM for the final 24 hours", "result": "in a ligand dependant manner"}, {"measurement": "magnitude of PGC-1 activation", "setting": "PEPCK promoter; mutation in the AF2 or the CRE site", "result": "did not produce an appreciable effect"}, {"measurement": "reduction of PGC-1-mediated activation", "setting": "PEPCK promoter; mutation of the AF1 or AF3 site (or both)", "result": "50-60%"}, {"measurement": "coactivation of COUP-TF on multimerized AF1 response element", "setting": "COUP-TF", "result": "no ability to coactivate"}, {"measurement": "activation of G6 Pase promoter-luciferase reporter", "setting": "G6 Pase promoter; cotransfected with HNF-4α", "result": "strong coactivation"}, {"measurement": "activation of G6 Pase promoter-luciferase reporter", "setting": "G6 Pase promoter; transfected alone", "result": "no activation"}, {"measurement": "coactivation of HNF-4α on multimerized AF1 response element", "setting": "HNF-4α", "result": "dramatically coactivates"}, {"measurement": "activation of 3×IRS promoter-luciferase reporter", "setting": "FKHR [4]", "result": "can coactivate FKHR"}]}, {"molecule": "insulin", "values": [{"measurement": "G6 Pase mRNA levels", "setting": "[5]", "result": "downregulated"}, {"measurement": "PGC-1 mRNA levels", "setting": "[5]", "result": "do not change"}, {"measurement": "PGC-1 induced expression of PEPCK and glucose-6-phosphatase", "setting": "[5]", "result": "downregulates"}]}, {"molecule": "constitutively active FKHR: FKHR with three phosphorylatable amino acids changed to alanine (protein, UniProt Q12778 1-655, looked up, variant T24A S256A S319A) Forkhead box protein O1: MAEAPQVVEIDPDFEPLPRPRSCAWPLPRPEFSQSNSATSSPAPSGSAAANPDAAAGLPSASAAAVSADFMSNLSLLEESEDFPQAPGSVAAAVAAAAAAAATGGLCGDFQGPEAGCLHPAPPQPPPPGPLSQHPPVPPAAAGPLAGQPRKSSSSRRNAWGNLSYADLITKAIESSAEKRLTLSQIYEWMVKSVPYFKDKGDSNSSAGWKNSIRHNLSLHSKFIRVQNEGTGKSSWWMLNPEGGKSGKSPRRRAAAMDNNSKFAKSRSRAAKKKASLQSGQEGAGDSPGSQFSKWPASPGSHSNDDFDNWSTFRPRTSANASTISGRLSPIMTEQDDLGEGDVHSMVYPPSAAKMASTLPSLSEISNPENMENLLDNLNLLSSPTSLTVSTQSSPGTMMQQTPCYSFAPPNTSLNSPSPNYQKYTYGQSSMSPLPQMPIQTLQDNKSSYGGMSQYNCAPGLLKELLTSDSPPHNDIMTPVDPGVAQPNSRVLGQNVMMGPNSVMSTYGSQASHNKMMNPSSHTHPGHAQQTSAVNGRPLPHTVSTMPHTSGMNRLTQVKTPVQVPLPHPMQMSALGGYSSVSSCNGYGRMGLLHQEKLPSDLDGMFIERLDCDMESIIRNDLMDGDTLDFNFDNVLPNQSFPHSVKTTTHSWVSG", "values": [{"measurement": "PGC-1 induced expression of PEPCK and glucose-6-phosphatase", "setting": "[5]", "result": "unchanged"}, {"measurement": "coactivation on wild type G6 Pase promoter-reporter", "setting": "FKHR [1]", "result": "further increased"}, {"measurement": "activation of 3×IRS promoter-luciferase reporter", "setting": "FKHR [4]", "result": "increased activation"}]}]}
